From BindingDB's records for doi:10.1021/jm00102a002 (Bristol-Myers Squibb, 1993)

What was measured:
D(2) dopamine receptor = D(2) dopamine receptor (Rattus norvegicus, UniProt P61169); experiment: ChEBML_61741
Source text: Inhibitory concentration against radioligand [3H]spiperone binding to rat striatal Dopamine receptor D2

[1] = target: Serotonin 2 (5-HT2) receptor (Rattus norvegicus, UniProt P08909+P14842+P30994); experiment: ChEBML_1935
Source text: Inhibitory concentration against radioligand [3H]spiperone binding to 5-hydroxytryptamine 2 receptor in rat cortex

Chain of D(2) dopamine receptor (P61169 whole entry): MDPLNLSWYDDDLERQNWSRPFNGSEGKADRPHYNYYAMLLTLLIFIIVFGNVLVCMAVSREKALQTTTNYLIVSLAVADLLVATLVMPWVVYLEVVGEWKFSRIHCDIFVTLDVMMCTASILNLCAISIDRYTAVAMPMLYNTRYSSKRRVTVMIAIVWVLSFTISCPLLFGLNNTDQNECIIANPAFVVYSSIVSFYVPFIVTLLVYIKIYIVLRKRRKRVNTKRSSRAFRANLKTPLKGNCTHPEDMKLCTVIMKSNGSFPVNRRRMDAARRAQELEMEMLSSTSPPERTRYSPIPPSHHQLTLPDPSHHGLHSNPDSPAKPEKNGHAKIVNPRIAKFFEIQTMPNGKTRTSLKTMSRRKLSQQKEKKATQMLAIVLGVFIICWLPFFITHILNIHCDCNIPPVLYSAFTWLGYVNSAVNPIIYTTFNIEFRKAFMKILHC
Chain of Serotonin 2 (5-HT2) receptor (P14842 whole entry): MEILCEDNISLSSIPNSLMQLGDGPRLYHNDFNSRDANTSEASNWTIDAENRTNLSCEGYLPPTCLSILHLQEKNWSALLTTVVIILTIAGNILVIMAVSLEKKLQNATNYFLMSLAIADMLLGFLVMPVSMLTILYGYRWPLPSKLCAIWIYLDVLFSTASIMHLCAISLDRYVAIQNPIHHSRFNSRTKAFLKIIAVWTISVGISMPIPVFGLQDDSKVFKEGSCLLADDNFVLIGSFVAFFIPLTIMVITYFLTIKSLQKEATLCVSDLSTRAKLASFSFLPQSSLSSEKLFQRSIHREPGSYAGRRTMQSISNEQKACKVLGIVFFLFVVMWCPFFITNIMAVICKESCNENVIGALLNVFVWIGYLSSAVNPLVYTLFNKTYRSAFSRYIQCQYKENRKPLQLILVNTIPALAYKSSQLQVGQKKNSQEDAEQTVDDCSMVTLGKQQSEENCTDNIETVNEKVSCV
Chain of Serotonin 2 (5-HT2) receptor (P08909 whole entry): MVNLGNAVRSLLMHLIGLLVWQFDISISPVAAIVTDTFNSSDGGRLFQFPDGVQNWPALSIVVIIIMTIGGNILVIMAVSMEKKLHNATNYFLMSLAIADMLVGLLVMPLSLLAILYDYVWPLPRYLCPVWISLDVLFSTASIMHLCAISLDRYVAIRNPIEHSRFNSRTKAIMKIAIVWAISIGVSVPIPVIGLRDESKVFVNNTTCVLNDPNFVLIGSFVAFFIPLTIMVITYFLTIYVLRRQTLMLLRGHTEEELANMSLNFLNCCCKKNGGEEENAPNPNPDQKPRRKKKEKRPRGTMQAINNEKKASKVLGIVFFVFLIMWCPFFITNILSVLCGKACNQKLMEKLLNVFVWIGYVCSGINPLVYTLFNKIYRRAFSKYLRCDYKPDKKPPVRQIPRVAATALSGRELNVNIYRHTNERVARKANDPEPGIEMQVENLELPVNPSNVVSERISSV
Chain of Serotonin 2 (5-HT2) receptor (P30994 whole entry): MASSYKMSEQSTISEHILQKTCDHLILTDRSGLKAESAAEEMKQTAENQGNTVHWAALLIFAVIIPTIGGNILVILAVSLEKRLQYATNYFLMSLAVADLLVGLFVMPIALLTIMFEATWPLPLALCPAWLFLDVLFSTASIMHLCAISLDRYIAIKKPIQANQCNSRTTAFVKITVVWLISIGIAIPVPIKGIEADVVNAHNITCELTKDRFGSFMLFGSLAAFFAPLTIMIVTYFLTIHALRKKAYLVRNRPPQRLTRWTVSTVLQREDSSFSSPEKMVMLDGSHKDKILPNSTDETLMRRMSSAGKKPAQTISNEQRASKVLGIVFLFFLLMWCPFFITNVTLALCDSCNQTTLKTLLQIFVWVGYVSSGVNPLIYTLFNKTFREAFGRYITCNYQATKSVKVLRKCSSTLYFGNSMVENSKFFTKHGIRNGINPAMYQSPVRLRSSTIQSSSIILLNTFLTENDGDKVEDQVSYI

With OC(CCCN1CCN(c2ncc(F)cn2)CC1)c1ccc(F)cc1 (configuration not stated) [1-(4-fluorophenyl)-4-(4-(5-fluoropyrimidin-2-yl)piperazin-1-yl)butan-1-ol] the IC50 (D(2) dopamine receptor) was 6.43 µM and the IC50 [1] was 1.7 µM.
